Source: patent publication US12195439B1, “C1-substituted isopropylamine fused heterocyclic mescaline derivatives” (Enveric Biosciences Canada Inc., priority 2022, dated 2025)

Target: T1, 5-HT1A receptor (Homo sapiens, UniProt P08908)
T1 construct: purchased Perkin Elmer 6110501400UA
T1 sequence (P08908 1-422): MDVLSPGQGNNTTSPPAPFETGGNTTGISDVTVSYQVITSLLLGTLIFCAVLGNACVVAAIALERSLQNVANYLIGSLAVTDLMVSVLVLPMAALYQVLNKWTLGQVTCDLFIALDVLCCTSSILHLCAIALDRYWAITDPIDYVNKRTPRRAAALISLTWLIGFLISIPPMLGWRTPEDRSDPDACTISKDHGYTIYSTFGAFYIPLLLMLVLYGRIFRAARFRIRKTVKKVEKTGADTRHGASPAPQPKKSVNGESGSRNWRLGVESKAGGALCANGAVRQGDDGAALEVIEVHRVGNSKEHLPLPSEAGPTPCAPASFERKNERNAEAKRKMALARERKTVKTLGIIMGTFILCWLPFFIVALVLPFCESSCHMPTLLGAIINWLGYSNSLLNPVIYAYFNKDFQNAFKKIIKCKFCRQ
Assay: Eurofins Cerep competition binding assay at 5-HT1A receptor
Settings: 10 μM test ligand, [3H]8-OH-DPAT, recombinant receptor from HEK-293 cells; read-out: HT1A, percent of control-specific binding

Compound | inhibition at 10 µM [%]
COc1ccc2cccc(CCNC(C)=O)c2c1 [Agomelatine, agomelatine] | 58
NCCc1c[nH]c2ccc(O)cc12 [serotonin] | 100
O=c1n(CCCN2CCN(c3cccc(Cl)c3)CC2)nc2ccccn12 [Trazodone, trazodone] | 97
N#Cc1ccc2[nH]cc(CCCCN3CCN(c4ccc5oc(C(N)=O)cc5c4)CC3)c2c1 [Vilazodone, vilazodone] | 99
CN(C)CCCN1c2ccccc2CCc2ccccc21 [Imipramine, imipramine] | 34
CC(NC(C)(C)C)C(=O)c1cccc(Cl)c1 (centres unmarked) [Bupropion, bupropion] | -1

Target: T2, 5-HT2B receptor (Homo sapiens, UniProt P41595)
T2 construct: host or cells: CHO cells (membrane preparation)
Assay: Eurofins Cerep competition binding assay at 5-HT2B receptor
Settings: 10 μM test ligand, [3H]mesulergine, recombinant receptor from CHO cells; read-out: HT2B, percent of control-specific binding

T2 sequence (P41595 whole entry): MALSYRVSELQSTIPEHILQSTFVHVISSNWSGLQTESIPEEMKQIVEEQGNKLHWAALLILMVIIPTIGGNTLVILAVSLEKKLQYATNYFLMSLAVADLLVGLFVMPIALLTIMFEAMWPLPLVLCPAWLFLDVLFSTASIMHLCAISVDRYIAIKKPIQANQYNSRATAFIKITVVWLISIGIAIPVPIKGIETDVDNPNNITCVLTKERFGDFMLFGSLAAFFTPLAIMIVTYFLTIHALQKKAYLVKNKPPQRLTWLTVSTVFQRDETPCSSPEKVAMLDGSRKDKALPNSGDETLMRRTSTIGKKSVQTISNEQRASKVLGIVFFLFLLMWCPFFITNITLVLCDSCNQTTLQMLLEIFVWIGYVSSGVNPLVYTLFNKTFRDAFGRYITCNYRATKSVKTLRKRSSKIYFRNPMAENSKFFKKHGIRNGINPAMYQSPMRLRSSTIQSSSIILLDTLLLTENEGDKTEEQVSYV

Compound | inhibition at 10 µM [%]
Cc1ccc(Sc2ccccc2N2CCNCC2)c(C)c1 [vortioxetine] | 97
COc1ccc2cccc(CCNC(C)=O)c2c1 [Agomelatine, agomelatine] | 93
O=c1n(CCCN2CCN(c3cccc(Cl)c3)CC2)nc2ccccn12 [Trazodone, trazodone] | 97
N#Cc1ccc2[nH]cc(CCCCN3CCN(c4ccc5oc(C(N)=O)cc5c4)CC3)c2c1 [Vilazodone, vilazodone] | 96
CN(C)CCCN1c2ccccc2CCc2ccccc21 [Imipramine, imipramine] | 94
CC(NC(C)(C)C)C(=O)c1cccc(Cl)c1 (centres unmarked) [Bupropion, bupropion] | -2

Target: T3, 5-HT2C receptor (Homo sapiens, UniProt P28335)
T3 construct: host or cells: HEK-293 cells (membrane preparation)
T3 sequence (P28335 33-458): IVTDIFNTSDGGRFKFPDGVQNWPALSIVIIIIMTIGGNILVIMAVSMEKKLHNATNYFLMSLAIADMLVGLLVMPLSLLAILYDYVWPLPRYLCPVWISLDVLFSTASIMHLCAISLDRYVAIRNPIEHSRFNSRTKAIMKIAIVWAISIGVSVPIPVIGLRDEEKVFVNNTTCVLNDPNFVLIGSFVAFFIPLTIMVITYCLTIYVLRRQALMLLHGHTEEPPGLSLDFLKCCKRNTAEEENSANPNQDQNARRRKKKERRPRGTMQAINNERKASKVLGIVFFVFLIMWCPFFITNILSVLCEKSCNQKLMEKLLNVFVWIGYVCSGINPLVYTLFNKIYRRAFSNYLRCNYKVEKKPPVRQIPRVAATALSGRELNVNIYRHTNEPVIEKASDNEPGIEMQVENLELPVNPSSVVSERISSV
Assay: Eurofins Cerep competition binding assay at 5-HT2C receptor
Settings: 10 μM test ligand, [125I](±)DOI, recombinant receptor from HEK-293 cells; read-out: HT2C, percent of control-specific binding

Compound | inhibition at 10 µM [%]
Cc1ccc(Sc2ccccc2N2CCNCC2)c(C)c1 [vortioxetine] | 99
COc1ccc2cccc(CCNC(C)=O)c2c1 [Agomelatine, agomelatine] | 92
O=c1n(CCCN2CCN(c3cccc(Cl)c3)CC2)nc2ccccn12 [Trazodone, trazodone] | 93
N#Cc1ccc2[nH]cc(CCCCN3CCN(c4ccc5oc(C(N)=O)cc5c4)CC3)c2c1 [Vilazodone, vilazodone] | 92
CN(C)CCCN1c2ccccc2CCc2ccccc21 [Imipramine, imipramine] | 98
CC(NC(C)(C)C)C(=O)c1cccc(Cl)c1 (centres unmarked) [Bupropion, bupropion] | 1

Target: T4, 5-HT7 receptor (Homo sapiens, UniProt P34969)
T4 construct: host or cells: HEK-293 cells (membrane preparation)
Assay: Eurofins Cerep competition binding assay at 5-HT7 receptor
Settings: 10 μM test ligand, [3H]LSD, recombinant receptor from HEK-293 cells; read-out: HT7, percent of control-specific binding

T4 sequence (P34969 whole entry): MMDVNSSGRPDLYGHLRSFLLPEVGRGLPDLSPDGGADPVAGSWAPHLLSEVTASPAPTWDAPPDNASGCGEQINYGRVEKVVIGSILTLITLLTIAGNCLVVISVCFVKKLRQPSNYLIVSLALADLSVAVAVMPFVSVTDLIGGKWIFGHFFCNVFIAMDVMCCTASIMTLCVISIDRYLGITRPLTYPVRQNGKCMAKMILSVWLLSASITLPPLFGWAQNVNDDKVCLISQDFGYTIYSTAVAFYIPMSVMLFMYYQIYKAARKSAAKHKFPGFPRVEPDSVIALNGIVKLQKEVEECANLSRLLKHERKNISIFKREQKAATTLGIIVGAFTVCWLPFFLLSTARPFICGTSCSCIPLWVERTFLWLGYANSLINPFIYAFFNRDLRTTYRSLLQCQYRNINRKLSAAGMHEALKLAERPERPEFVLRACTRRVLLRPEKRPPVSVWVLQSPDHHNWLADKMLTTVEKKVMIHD

Compound | inhibition at 10 µM [%]
Cc1ccc(Sc2ccccc2N2CCNCC2)c(C)c1 [vortioxetine] | 100
COc1ccc2cccc(CCNC(C)=O)c2c1 [Agomelatine, agomelatine] | 20
NCCc1c[nH]c2ccc(O)cc12 [serotonin] | 100
O=c1n(CCCN2CCN(c3cccc(Cl)c3)CC2)nc2ccccn12 [Trazodone, trazodone] | 99
N#Cc1ccc2[nH]cc(CCCCN3CCN(c4ccc5oc(C(N)=O)cc5c4)CC3)c2c1 [Vilazodone, vilazodone] | 83
CN(C)CCCN1c2ccccc2CCc2ccccc21 [Imipramine, imipramine] | 93
CC(NC(C)(C)C)C(=O)c1cccc(Cl)c1 (centres unmarked) [Bupropion, bupropion] | 4

Target: T5, alpha2A receptor (Homo sapiens, UniProt P08913)
T5 construct: host or cells: CHO cells (membrane preparation)
T5 sequence (P08913 1-465): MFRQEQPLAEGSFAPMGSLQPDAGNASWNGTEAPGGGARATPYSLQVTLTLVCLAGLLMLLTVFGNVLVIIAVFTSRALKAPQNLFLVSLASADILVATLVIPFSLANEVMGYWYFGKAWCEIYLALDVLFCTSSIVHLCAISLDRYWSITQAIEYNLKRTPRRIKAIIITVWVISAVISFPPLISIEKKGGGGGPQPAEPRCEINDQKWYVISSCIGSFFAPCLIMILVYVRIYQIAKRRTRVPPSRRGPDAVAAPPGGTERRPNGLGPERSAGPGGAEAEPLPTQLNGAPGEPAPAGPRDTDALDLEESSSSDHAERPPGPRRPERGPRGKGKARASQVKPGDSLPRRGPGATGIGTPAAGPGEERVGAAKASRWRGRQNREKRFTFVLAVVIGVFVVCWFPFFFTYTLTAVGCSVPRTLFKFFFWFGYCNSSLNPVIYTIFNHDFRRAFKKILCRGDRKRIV
Assay: Eurofins Cerep competition binding assay at alpha2A receptor
Settings: 10 μM test ligand, [3H]RX 821002, recombinant receptor from CHO cells; read-out: α-2A, percent of control-specific binding

Compound | inhibition at 10 µM [%]
Cc1ccc(Sc2ccccc2N2CCNCC2)c(C)c1 [vortioxetine] | 62
COc1ccc2cccc(CCNC(C)=O)c2c1 [Agomelatine, agomelatine] | 2
NCCc1c[nH]c2ccc(O)cc12 [serotonin] | 18
O=c1n(CCCN2CCN(c3cccc(Cl)c3)CC2)nc2ccccn12 [Trazodone, trazodone] | 91
N#Cc1ccc2[nH]cc(CCCCN3CCN(c4ccc5oc(C(N)=O)cc5c4)CC3)c2c1 [Vilazodone, vilazodone] | 65
CN(C)CCCN1c2ccccc2CCc2ccccc21 [Imipramine, imipramine] | 57
CC(NC(C)(C)C)C(=O)c1cccc(Cl)c1 (centres unmarked) [Bupropion, bupropion] | 2

Target: T6, serotonin transporter (SERT) (Homo sapiens, UniProt P31645)
T6 construct: host or cells: CHO cells (membrane preparation)
Assay: biochemical
Type: binding
Settings: read-out: SERT, percent of control-specific binding

T6 sequence (P31645 whole entry): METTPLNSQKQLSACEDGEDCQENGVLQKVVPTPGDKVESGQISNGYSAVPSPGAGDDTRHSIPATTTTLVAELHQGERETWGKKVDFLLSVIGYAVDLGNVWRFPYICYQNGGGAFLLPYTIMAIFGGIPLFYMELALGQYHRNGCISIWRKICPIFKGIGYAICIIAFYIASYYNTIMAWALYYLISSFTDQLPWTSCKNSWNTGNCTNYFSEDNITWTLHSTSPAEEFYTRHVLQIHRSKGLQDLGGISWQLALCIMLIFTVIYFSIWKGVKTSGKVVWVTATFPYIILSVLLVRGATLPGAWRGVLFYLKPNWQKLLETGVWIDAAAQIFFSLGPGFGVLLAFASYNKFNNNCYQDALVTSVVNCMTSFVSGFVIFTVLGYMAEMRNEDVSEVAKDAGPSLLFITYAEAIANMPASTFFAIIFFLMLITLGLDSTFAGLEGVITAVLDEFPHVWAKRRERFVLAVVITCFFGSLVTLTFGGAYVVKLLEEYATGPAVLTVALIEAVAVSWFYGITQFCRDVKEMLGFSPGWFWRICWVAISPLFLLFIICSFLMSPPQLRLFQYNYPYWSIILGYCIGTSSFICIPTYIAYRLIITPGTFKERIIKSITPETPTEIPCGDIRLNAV

Compound | inhibition at 10 µM [%]
Cc1ccc(Sc2ccccc2N2CCNCC2)c(C)c1 [vortioxetine] | 101
COc1ccc2cccc(CCNC(C)=O)c2c1 [Agomelatine, agomelatine] | 30
N#Cc1ccc2[nH]cc(CCCCN3CCN(c4ccc5oc(C(N)=O)cc5c4)CC3)c2c1 [Vilazodone, vilazodone] | 100
CN(C)CCCN1c2ccccc2CCc2ccccc21 [Imipramine, imipramine] | 98

Target: T7, dopamine transporter (DAT) (Homo sapiens, UniProt Q01959)
T7 construct: host or cells: CHO cells (membrane preparation)
Assay: Eurofins Cerep competition binding assay at dopamine transporter
Settings: read-out: DAT, percent of control-specific binding, 10 μM test ligand, [3H]BTCP, recombinant transporter from CHO cells

T7 sequence (Q01959 whole entry): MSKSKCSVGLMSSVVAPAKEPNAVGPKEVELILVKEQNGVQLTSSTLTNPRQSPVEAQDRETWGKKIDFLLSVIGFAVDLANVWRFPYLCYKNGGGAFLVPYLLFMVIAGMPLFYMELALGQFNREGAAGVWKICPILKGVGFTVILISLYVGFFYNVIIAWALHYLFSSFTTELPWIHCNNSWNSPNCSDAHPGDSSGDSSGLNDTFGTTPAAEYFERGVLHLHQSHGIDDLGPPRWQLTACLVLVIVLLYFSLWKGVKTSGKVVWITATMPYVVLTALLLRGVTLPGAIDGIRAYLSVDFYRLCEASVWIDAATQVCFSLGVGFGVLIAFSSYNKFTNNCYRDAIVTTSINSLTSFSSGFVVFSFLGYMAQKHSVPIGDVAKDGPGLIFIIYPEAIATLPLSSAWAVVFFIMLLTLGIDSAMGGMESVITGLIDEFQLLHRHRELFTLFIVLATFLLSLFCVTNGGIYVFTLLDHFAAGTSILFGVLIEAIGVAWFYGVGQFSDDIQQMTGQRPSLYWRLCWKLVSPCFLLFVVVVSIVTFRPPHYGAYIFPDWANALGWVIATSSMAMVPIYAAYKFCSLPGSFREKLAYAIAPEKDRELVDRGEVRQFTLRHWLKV

Compound | inhibition at 10 µM [%]
Cc1ccc(Sc2ccccc2N2CCNCC2)c(C)c1 [vortioxetine] | 90
COc1ccc2cccc(CCNC(C)=O)c2c1 [Agomelatine, agomelatine] | 1
NCCc1c[nH]c2ccc(O)cc12 [serotonin] | 8
O=c1n(CCCN2CCN(c3cccc(Cl)c3)CC2)nc2ccccn12 [Trazodone, trazodone] | 24
N#Cc1ccc2[nH]cc(CCCCN3CCN(c4ccc5oc(C(N)=O)cc5c4)CC3)c2c1 [Vilazodone, vilazodone] | 98
CN(C)CCCN1c2ccccc2CCc2ccccc21 [Imipramine, imipramine] | 23
CC(NC(C)(C)C)C(=O)c1cccc(Cl)c1 (centres unmarked) [Bupropion, bupropion] | 92

Target: T8, MT1 receptor (Homo sapiens, UniProt P48039)
T8 construct: host or cells: CHO cells (membrane preparation)
Assay: Eurofins Cerep competition binding assay at MT1 receptor
Settings: read-out: MT1, percent of control-specific binding

T8 sequence (P48039 whole entry): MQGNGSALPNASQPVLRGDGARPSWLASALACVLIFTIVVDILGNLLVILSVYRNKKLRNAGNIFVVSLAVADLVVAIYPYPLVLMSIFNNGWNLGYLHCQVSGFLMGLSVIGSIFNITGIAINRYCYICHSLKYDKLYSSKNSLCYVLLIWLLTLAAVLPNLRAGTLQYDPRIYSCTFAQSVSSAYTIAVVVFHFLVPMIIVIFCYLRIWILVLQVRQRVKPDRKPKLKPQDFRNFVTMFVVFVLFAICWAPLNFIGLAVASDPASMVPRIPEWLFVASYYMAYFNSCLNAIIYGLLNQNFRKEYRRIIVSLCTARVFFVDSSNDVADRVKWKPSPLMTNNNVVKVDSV

Compound | inhibition at 10 µM [%]
COc1ccc2cccc(CCNC(C)=O)c2c1 [Agomelatine, agomelatine] | 99

Same assay, conditions: read-out: MT1, percent of control-specific binding, 10 μM test ligand, [125I]2-iodomelatonin, recombinant receptor from CHO cells

Compound | inhibition at 10 µM [%]
Cc1ccc(Sc2ccccc2N2CCNCC2)c(C)c1 [vortioxetine] | 26
NCCc1c[nH]c2ccc(O)cc12 [serotonin] | 7
O=c1n(CCCN2CCN(c3cccc(Cl)c3)CC2)nc2ccccn12 [Trazodone, trazodone] | 14
N#Cc1ccc2[nH]cc(CCCCN3CCN(c4ccc5oc(C(N)=O)cc5c4)CC3)c2c1 [Vilazodone, vilazodone] | 84
CN(C)CCCN1c2ccccc2CCc2ccccc21 [Imipramine, imipramine] | 29
CC(NC(C)(C)C)C(=O)c1cccc(Cl)c1 (centres unmarked) [Bupropion, bupropion] | 83

Target: T9, norepinephrine transporter (NET) (Homo sapiens, UniProt P23975)
T9 construct: host or cells: CHO cells (membrane preparation)
Assay: Eurofins Cerep competition binding assay at norepinephrine transporter
Settings: read-out: NET, percent of control-specific binding, 10 μM test ligand, [3H]nisoxetine, recombinant transporter from CHO cells

T9 sequence (P23975 whole entry): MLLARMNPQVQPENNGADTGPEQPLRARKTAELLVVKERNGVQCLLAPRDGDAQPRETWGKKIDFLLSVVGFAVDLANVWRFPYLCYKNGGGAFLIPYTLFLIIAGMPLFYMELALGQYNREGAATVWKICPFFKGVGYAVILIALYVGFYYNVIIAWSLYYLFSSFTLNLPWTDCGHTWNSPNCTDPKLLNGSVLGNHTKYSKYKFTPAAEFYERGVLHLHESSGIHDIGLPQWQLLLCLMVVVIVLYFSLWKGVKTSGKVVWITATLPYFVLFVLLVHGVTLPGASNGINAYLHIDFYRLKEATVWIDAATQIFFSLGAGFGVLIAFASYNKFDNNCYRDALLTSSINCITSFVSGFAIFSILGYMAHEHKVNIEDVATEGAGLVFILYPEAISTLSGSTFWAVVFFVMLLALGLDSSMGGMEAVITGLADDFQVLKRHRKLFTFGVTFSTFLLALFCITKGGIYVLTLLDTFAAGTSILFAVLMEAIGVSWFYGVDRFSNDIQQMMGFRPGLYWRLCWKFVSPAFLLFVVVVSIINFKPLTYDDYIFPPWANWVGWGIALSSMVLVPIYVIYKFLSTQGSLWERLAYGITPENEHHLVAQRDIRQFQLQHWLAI

Compound | inhibition at 10 µM [%]
Cc1ccc(Sc2ccccc2N2CCNCC2)c(C)c1 [vortioxetine] | 99
COc1ccc2cccc(CCNC(C)=O)c2c1 [Agomelatine, agomelatine] | 1
NCCc1c[nH]c2ccc(O)cc12 [serotonin] | -3
O=c1n(CCCN2CCN(c3cccc(Cl)c3)CC2)nc2ccccn12 [Trazodone, trazodone] | -1
N#Cc1ccc2[nH]cc(CCCCN3CCN(c4ccc5oc(C(N)=O)cc5c4)CC3)c2c1 [Vilazodone, vilazodone] | 99
CN(C)CCCN1c2ccccc2CCc2ccccc21 [Imipramine, imipramine] | 99
